These results are taken from US9587471B2, “Controlling bioavailability of nutrient additions in subsurface formations” (E I DU PONT DE NEMOURS AND COMPANY, priority 2008, dated 2017).

In experiment [1] the test system is Pseudomonas stutzeri strain LH4:15, ATCC PTA-8823. Put plainly: Aerobic growth response (turbidity) to varying concentrations of potential microbial nutrients. As to growth response (turbidity): key: − = no turbidity; + = slight turbidity; ++ = moderate to heavy turbidity. Format: cell-based. To be noted: for concentration at which microbial growth was inhibited: aerobic growth at 30° C. The protocol:
Typically cells were grown at a temperature in the range of about 25° C. to about 40° C. in an appropriate medium.
Additional potential microbial nutrients were added at various concentrations as outlined in Table 1. Growth was monitored visually with positive growth indicated by moderate to heavy turbidity.

For experiment [2], the system named is Pseudomonas stutzeri strain LH4:15 (ATCC PTA-8823). Put plainly: Anaerobic growth and survival: biocidal versus biostatic inhibition. To be noted: for change in Log cell number: day 0 vs day 7, anaerobic; for Final anaerobic vial OD: starting OD600 = 0.05. In kind it is cell-based. As for the experimental part:
In this invention, the anaerobic growth and survival was tested in 20 ml crimp-capped anaerobic vials, using a complete nutrient medium of the following composition: Na2HPO4.7H2O, 1.4 g/L, KH2PO4, 0.69 g/L, NH4Cl, 0.5 g/L, MgSO4.7H2O, 0.1/L g, SL-10 trace metals, 10 ml, NaCl, 7.5 g/L, NaHCO3, 7.2 g/L, sodium nitrate, 12 g/L, Na lactate, 7 g/L, yeast extract, 10 mg/L, pH 7.3-7.8.
The anaerobic growth and survival was tested as outlined above. […] Vials were inoculated using an overnight aerobic culture of Pseudomonas stutzeri strain LH4:15 (ATCC PTA-8823) in Luria Bertani medium (LB, Mediatech Inc., Herndon, Va.,) at a final OD600 of 0.05. Within 2 hours of inoculation, serial dilutions from each treatment vial were made into aerobic LB medium to determine the cell numbers at Day 0. After approximately 24 hours cell numbers were estimated by noting the highest positive dilution based on the presence or absence of turbidity in dilutions of 10^−1 to 10^−11 in the serial dilution plates. Cell numbers on Day 0 and Day 7 were measured to obtain a survival estimate during inhibitor exposure.

[3] abbreviates: 10 g/L, 120 hours of incubation.
[4] abbreviates: 20 g/L, 120 hours of incubation.
The mark [5] stands for this setting: 50 g/L, 120 hours of incubation.
Where [6] appears, read: 100 g/L, 24 hours of incubation.
Setting [7] is: 100 g/L, 48 hours of incubation.
[8] abbreviates: 100 g/L, 120 hours of incubation.
Setting [9] is: 200 g/L, 24 hours of incubation.
The mark [10] stands for this setting: 200 g/L, 48 hours of incubation.
Setting [11] is: 200 g/L, 120 hours of incubation.

The structures appear in SMILES notation.

Regarding `OCC(O)CO` [Glycerol], the “Growth response (turbidity)” value in experiment [1] (10 g/L, 24 hours of incubation) was “++”; in experiment [1] (10 g/L, 48 hours of incubation), “++”; in experiment [1] (setting [3]), “++”; in experiment [1] (20 g/L, 24 hours of incubation), “++”; in experiment [1] (20 g/L, 48 hours of incubation), “++”; in experiment [1] (setting [4]), “++”. Further, the “Growth response (turbidity)” value in experiment [1] (50 g/L, 24 hours of incubation) is “++”; in experiment [1] (50 g/L, 48 hours of incubation), “++”; in experiment [1] (setting [5]), “++”; in experiment [1] (setting [6]), “++”; in experiment [1] (setting [7]), “++”; in experiment [1] (setting [8]), “++”. The “Growth response (turbidity)” value in experiment [1] (setting [9]), in experiment [1] (setting [10]) and in experiment [1] (setting [11]) was “−” throughout.

For the molecule `O=[N+]([O-])[O-].[Na+]` [NaNO3, sodium nitrate], the “change in Log cell number” value in experiment [2] (50 g/L) is listed as −1; in experiment [2] (80 g/L), 0; in experiment [2] (100 g/L) it was −2; in experiment [2] (200 g/L), −6; in experiment [2] (400 g/L), −5. Also, the “Final anaerobic vial OD” value was found to be 0.06 in experiment [2] (50 g/L); 0.03 in experiment [2] (80 g/L); 0.02 in experiment [2] (100 g/L); 0.03 in experiment [2] (200 g/L); 0.03 in experiment [2] (400 g/L). Moreover, the “Growth response (turbidity)” value was “++” in experiment [1] (10 g/L, 24 hours of incubation); “++” in experiment [1] (10 g/L, 48 hours of incubation); “++” in experiment [1] (setting [3]); “++” in experiment [1] (20 g/L, 24 hours of incubation); “++” in experiment [1] (20 g/L, 48 hours of incubation); “++” in experiment [1] (setting [4]). Also, the “Growth response (turbidity)” value in experiment [1] (50 g/L, 24 hours of incubation) was “−”; in experiment [1] (50 g/L, 48 hours of incubation), “+”; in experiment [1] (setting [5]), “++”; in experiment [1] (setting [6]), “−”; in experiment [1] (setting [7]) it was “−”; in experiment [1] (setting [8]) it was “−”. The “Growth response (turbidity)” value in experiment [1] (setting [9]), in experiment [1] (setting [10]) and in experiment [1] (setting [11]) was “−” throughout. For the same molecule, the “concentration at which microbial growth was inhibited” value in experiment [1] is on record as not below 100 g/L.

As for `NC(N)=O` [Urea], the “change in Log cell number” value is given as −1 in experiment [2] (20 g/L); −1 in experiment [2] (30 g/L); −1 in experiment [2] (50 g/L); −1 in experiment [2] (100 g/L); “Dead” in experiment [2] (200 g/L); “Dead” in experiment [2] (300 g/L). Further, the “Final anaerobic vial OD” value in experiment [2] (20 g/L) is recorded as 0.2; in experiment [2] (30 g/L) it was 0.13; in experiment [2] (50 g/L), 0.03; in experiment [2] (100 g/L) it was 0.02; in experiment [2] (200 g/L), 0.01; in experiment [2] (300 g/L), 0.01. Besides, the “Growth response (turbidity)” value is “++” in experiment [1] (10 g/L, 24 hours of incubation); “++” in experiment [1] (10 g/L, 48 hours of incubation); “++” in experiment [1] (setting [3]); “++” in experiment [1] (20 g/L, 24 hours of incubation); “++” in experiment [1] (20 g/L, 48 hours of incubation); “++” in experiment [1] (setting [4]). The “Growth response (turbidity)” value in experiment [1] (50 g/L, 24 hours of incubation) is listed as “−”; in experiment [1] (50 g/L, 48 hours of incubation) it was “−”; in experiment [1] (setting [5]), “−”; in experiment [1] (setting [6]) it was “−”; in experiment [1] (setting [7]), “−”; in experiment [1] (setting [8]), “−”. In addition, the “Growth response (turbidity)” value in experiment [1] (setting [9]), in experiment [1] (setting [10]) and in experiment [1] (setting [11]) was “−” throughout. Also, the “concentration at which microbial growth was inhibited” value in experiment [1] is reported as not below 50 g/L.

On to `[Cl-].[Na+]` [NaCl], for which the “change in Log cell number” value in experiment [2] (50 g/L) is −1; in experiment [2] (80 g/L), −3; in experiment [2] (100 g/L), −1; in experiment [2] (200 g/L), −2; in experiment [2] (400 g/L) it was −4. In addition, the “Final anaerobic vial OD” value in experiment [2] (50 g/L) was 0.08; in experiment [2] (80 g/L), 0.11; in experiment [2] (100 g/L), 0.05; in experiment [2] (200 g/L) it was 0.03; in experiment [2] (400 g/L), 0.03.

As for `CCO` [Ethanol], the “Growth response (turbidity)” value is “++” in experiment [1] (0.05 g/L, 24 hours of incubation); “++” in experiment [1] (0.05 g/L, 48 hours of incubation); “++” in experiment [1] (0.05 g/L, 120 hours of incubation); “++” in experiment [1] (0.1 g/L, 24 hours of incubation); “++” in experiment [1] (0.1 g/L, 48 hours of incubation); “++” in experiment [1] (0.1 g/L, 120 hours of incubation). The “Growth response (turbidity)” value in experiment [1] (0.5 g/L, 24 hours of incubation) is “++”; in experiment [1] (0.5 g/L, 48 hours of incubation), “++”; in experiment [1] (0.5 g/L, 120 hours of incubation) it was “++”; in experiment [1] (1 g/L, 24 hours of incubation) it was “++”; in experiment [1] (1 g/L, 48 hours of incubation), “++”; in experiment [1] (1 g/L, 120 hours of incubation), “++”. The “Growth response (turbidity)” value in experiment [1] (10 g/L, 24 hours of incubation) is given as “++”; in experiment [1] (10 g/L, 48 hours of incubation), “++”; in experiment [1] (setting [3]), “++”; in experiment [1] (20 g/L, 24 hours of incubation), “+”; in experiment [1] (20 g/L, 48 hours of incubation) it was “++”; in experiment [1] (setting [4]) it was “++”. Besides, the “Growth response (turbidity)” value in experiment [1] (50 g/L, 24 hours of incubation) is given as “−”; in experiment [1] (50 g/L, 48 hours of incubation), “−”; in experiment [1] (setting [5]), “−”.

As for `CC(O)C(=O)[O-].[Na+]` (stereo not shown) [Na lactate, sodium lactate], the “Growth response (turbidity)” value in experiment [1] (10 g/L, 24 hours of incubation) was “++”; in experiment [1] (10 g/L, 48 hours of incubation), “++”; in experiment [1] (setting [3]) it was “++”; in experiment [1] (20 g/L, 24 hours of incubation), “++”; in experiment [1] (20 g/L, 48 hours of incubation) it was “++”; in experiment [1] (setting [4]) it was “++”. For the same molecule, the “Growth response (turbidity)” value is reported as “−” in experiment [1] (50 g/L, 24 hours of incubation); “−” in experiment [1] (50 g/L, 48 hours of incubation); “−” in experiment [1] (setting [5]); “−” in experiment [1] (setting [6]); “−” in experiment [1] (setting [7]); “−” in experiment [1] (setting [8]). The “Growth response (turbidity)” value in experiment [1] (setting [9]), in experiment [1] (setting [10]) and in experiment [1] (setting [11]) was “−” in each case.

Take `OCCO` [Ethylene glycol]: the “Growth response (turbidity)” value is reported as “++” in experiment [1] (10 g/L, 24 hours of incubation); “++” in experiment [1] (10 g/L, 48 hours of incubation); “++” in experiment [1] (setting [3]); “++” in experiment [1] (20 g/L, 24 hours of incubation); “++” in experiment [1] (20 g/L, 48 hours of incubation); “++” in experiment [1] (setting [4]). Further, the “Growth response (turbidity)” value was “++” in experiment [1] (50 g/L, 24 hours of incubation); “++” in experiment [1] (50 g/L, 48 hours of incubation); “++” in experiment [1] (setting [5]); “+” in experiment [1] (setting [6]); “++” in experiment [1] (setting [7]); “++” in experiment [1] (setting [8]). Besides, the “Growth response (turbidity)” value in experiment [1] (setting [9]), in experiment [1] (setting [10]) and in experiment [1] (setting [11]) was “−” in each case.
